Assay results reported in the supplement of paper PMC10307832.

Experiments:
Assay in all cases: relative viability (nuclei count vs DMSO), 5 days (fraction); higher = more cells survive
[1] = test system: 201T
Outline: (§1)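 The day after seeding in 1536-well plates, lung cancer cell lines were treated by pin tool with a single drug, or with a fixed anchor-drug dose together with five library-drug doses (not always all listed) in √10 steps. After 5 days, a combined fix-and-stain solution (final 0.05% Triton X-100, 1% formaldehyde, 1 ug/ml Hoechst) was added. Nuclei counted on 4× images gave relative viability as treated counts over vehicle counts, reported as the median of duplicate plates.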

[2] = test system: BEN
Outline: as §1

[3] = test system: EMC-BAC-2
Outline: as §1

[4] = test system: HARA
Outline: as §1

[5] = test system: HCC-44
Outline: as §1

[6] = test system: LCLC-103H
Outline: as §1

[7] = test system: LOU-NH91
Outline: as §1

[8] = test system: NCI-H1395
Outline: as §1

[9] = test system: NCI-H1666
Outline: as §1

[10] = test system: NCI-H1993
Outline: as §1

[11] = test system: NCI-H2009
Outline: as §1

[12] = test system: NCI-H2023
Outline: as §1

[13] = test system: NCI-H2087
Outline: as §1

[14] = test system: NCI-H2126
Outline: as §1

[15] = test system: NCI-H2347
Outline: as §1

[16] = test system: NCI-H23
Outline: as §1

[17] = test system: NCI-H3122
Outline: as §1

[18] = test system: NCI-H441
Outline: as §1

[19] = test system: NCI-H522
Outline: as §1

[20] = test system: NCI-H596
Outline: as §1

[21] = test system: NCI-H647
Outline: as §1

[22] = test system: NCI-H650
Outline: as §1

[23] = test system: NCI-H727
Outline: as §1

[24] = test system: NCI-H838
Outline: as §1

Question: How did the relative viability ([1]; first compound 0.04 µM) turn out when `COc1cc(N2CCC(C(N)=O)CC2)ccc1Nc1nc(N)c(Cl)c(Nc2ccccc2S(=O)(=O)C(C)C)n1` [HG-5-88-01] + Nc1ncn([C@H]2C[C@H](O)[C@@H](CO)O2)c(=O)n1 [Decitabine] (partner 2 µM) was run?
Answer: 0.856

Question: And the relative viability ([1]; first compound 0.1265 µM)?
Answer: 0.864

Question: What about the relative viability ([1]; first compound 1.265 µM) of the same compound?
Answer: 0.852

Question: What about the relative viability ([1]; first compound 4 µM) of the same compound?
Answer: 0.891

Question: And the relative viability ([2]; first compound 0.04 µM)?
Answer: 0.532

Question: And the relative viability ([2]; first compound 0.1265 µM)?
Answer: 0.738

Question: And the relative viability ([2]; first compound 0.4 µM)?
Answer: 0.77

Question: And the relative viability ([2]; first compound 1.265 µM)?
Answer: 0.725

Question: And the relative viability ([2]; first compound 4 µM)?
Answer: 0.545

Question: And the relative viability ([3]; first compound 0.04 µM)?
Answer: 1

Question: And the relative viability ([3]; first compound 0.1265 µM)?
Answer: 1.07

Question: What about the relative viability ([3]; first compound 0.4 µM) of the same compound?
Answer: 0.965

Question: And the relative viability ([3]; first compound 1.265 µM)?
Answer: 0.874

Question: And the relative viability ([3]; first compound 4 µM)?
Answer: 0.802

Question: What about the relative viability ([4]; first compound 0.04 µM) of the same compound?
Answer: 0.581

Question: And the relative viability ([4]; first compound 0.1265 µM)?
Answer: 0.504

Question: What about the relative viability ([4]; first compound 0.4 µM) of the same compound?
Answer: 0.663

Question: And the relative viability ([4]; first compound 1.265 µM)?
Answer: 0.451

Question: And the relative viability ([4]; first compound 4 µM)?
Answer: 0.494

Question: And the relative viability ([5]; first compound 0.04 µM)?
Answer: 0.936

Question: And the relative viability ([5]; first compound 0.1265 µM)?
Answer: 0.996

Question: And the relative viability ([5]; first compound 0.4 µM)?
Answer: 0.913

Question: And the relative viability ([5]; first compound 1.265 µM)?
Answer: 0.996

Question: What about the relative viability ([5]; first compound 4 µM) of the same compound?
Answer: 0.817

Question: And the relative viability ([6]; first compound 0.04 µM)?
Answer: 0.776

Question: What about the relative viability ([6]; first compound 0.1265 µM) of the same compound?
Answer: 0.735

Question: What about the relative viability ([6]; first compound 0.4 µM) of the same compound?
Answer: 0.738

Question: What about the relative viability ([6]; first compound 1.265 µM) of the same compound?
Answer: 0.713

Question: And the relative viability ([6]; first compound 4 µM)?
Answer: 0.74

Question: And the relative viability ([7]; first compound 0.04 µM)?
Answer: 0.796

Question: What about the relative viability ([7]; first compound 0.1265 µM) of the same compound?
Answer: 0.844

Question: And the relative viability ([7]; first compound 0.4 µM)?
Answer: 0.725

Question: What about the relative viability ([7]; first compound 1.265 µM) of the same compound?
Answer: 0.587

Question: What about the relative viability ([7]; first compound 4 µM) of the same compound?
Answer: 0.6

Question: What about the relative viability ([8]; first compound 0.04 µM) of the same compound?
Answer: 0.765

Question: And the relative viability ([8]; first compound 0.1265 µM)?
Answer: 0.712

Question: What about the relative viability ([8]; first compound 0.4 µM) of the same compound?
Answer: 0.789

Question: What about the relative viability ([8]; first compound 1.265 µM) of the same compound?
Answer: 0.682

Question: What about the relative viability ([8]; first compound 4 µM) of the same compound?
Answer: 0.751

Question: And the relative viability ([9]; first compound 0.04 µM)?
Answer: 0.66

Question: And the relative viability ([9]; first compound 0.1265 µM)?
Answer: 0.743

Question: What about the relative viability ([9]; first compound 0.4 µM) of the same compound?
Answer: 0.779

Question: What about the relative viability ([9]; first compound 1.265 µM) of the same compound?
Answer: 0.622

Question: What about the relative viability ([9]; first compound 4 µM) of the same compound?
Answer: 0.566

Question: And the relative viability ([10]; first compound 0.04 µM)?
Answer: 0.583

Question: And the relative viability ([10]; first compound 0.1265 µM)?
Answer: 0.709

Question: What about the relative viability ([10]; first compound 0.4 µM) of the same compound?
Answer: 0.586

Question: What about the relative viability ([10]; first compound 4 µM) of the same compound?
Answer: 0.545

Question: And the relative viability ([11]; first compound 0.04 µM)?
Answer: 0.355

Question: What about the relative viability ([11]; first compound 0.1265 µM) of the same compound?
Answer: 0.384

Question: And the relative viability ([11]; first compound 0.4 µM)?
Answer: 0.338

Question: What about the relative viability ([11]; first compound 1.265 µM) of the same compound?
Answer: 0.314

Question: What about the relative viability ([11]; first compound 4 µM) of the same compound?
Answer: 0.377

Question: What about the relative viability ([12]; first compound 0.04 µM) of the same compound?
Answer: 0.223

Question: And the relative viability ([12]; first compound 0.1265 µM)?
Answer: 0.244

Question: What about the relative viability ([12]; first compound 0.4 µM) of the same compound?
Answer: 0.229

Question: And the relative viability ([12]; first compound 1.265 µM)?
Answer: 0.236

Question: And the relative viability ([12]; first compound 4 µM)?
Answer: 0.256

Question: And the relative viability ([13]; first compound 0.04 µM)?
Answer: 0.315

Question: And the relative viability ([13]; first compound 0.1265 µM)?
Answer: 0.365

Question: And the relative viability ([13]; first compound 0.4 µM)?
Answer: 0.325

Question: What about the relative viability ([13]; first compound 1.265 µM) of the same compound?
Answer: 0.246

Question: And the relative viability ([13]; first compound 4 µM)?
Answer: 0.242

Question: What about the relative viability ([14]; first compound 0.04 µM) of the same compound?
Answer: 0.603

Question: What about the relative viability ([14]; first compound 0.1265 µM) of the same compound?
Answer: 0.586

Question: And the relative viability ([14]; first compound 0.4 µM)?
Answer: 0.568

Question: What about the relative viability ([14]; first compound 1.265 µM) of the same compound?
Answer: 0.6

Question: And the relative viability ([14]; first compound 4 µM)?
Answer: 0.556

Question: And the relative viability ([15]; first compound 0.04 µM)?
Answer: 0.632

Question: And the relative viability ([15]; first compound 0.1265 µM)?
Answer: 0.637

Question: And the relative viability ([15]; first compound 0.4 µM)?
Answer: 0.729

Question: What about the relative viability ([15]; first compound 1.265 µM) of the same compound?
Answer: 0.672

Question: What about the relative viability ([15]; first compound 4 µM) of the same compound?
Answer: 0.645

Question: And the relative viability ([16]; first compound 0.04 µM)?
Answer: 0.365

Question: What about the relative viability ([16]; first compound 0.1265 µM) of the same compound?
Answer: 0.331

Question: What about the relative viability ([16]; first compound 0.4 µM) of the same compound?
Answer: 0.327

Question: And the relative viability ([16]; first compound 1.265 µM)?
Answer: 0.282

Question: And the relative viability ([16]; first compound 4 µM)?
Answer: 0.329

Question: And the relative viability ([17]; first compound 0.04 µM)?
Answer: 0.365

Question: And the relative viability ([17]; first compound 0.1265 µM)?
Answer: 0.279

Question: What about the relative viability ([17]; first compound 0.4 µM) of the same compound?
Answer: 0.223

Question: And the relative viability ([17]; first compound 1.265 µM)?
Answer: 0.127

Question: And the relative viability ([17]; first compound 4 µM)?
Answer: 0.0935

Question: What about the relative viability ([18]; first compound 0.04 µM) of the same compound?
Answer: 0.235

Question: And the relative viability ([18]; first compound 0.1265 µM)?
Answer: 0.28

Question: And the relative viability ([18]; first compound 0.4 µM)?
Answer: 0.272

Question: And the relative viability ([18]; first compound 1.265 µM)?
Answer: 0.231

Question: And the relative viability ([18]; first compound 4 µM)?
Answer: 0.271

Question: What about the relative viability ([19]; first compound 0.04 µM) of the same compound?
Answer: 0.702

Question: What about the relative viability ([19]; first compound 0.1265 µM) of the same compound?
Answer: 0.773

Question: And the relative viability ([19]; first compound 0.4 µM)?
Answer: 0.69

Question: And the relative viability ([19]; first compound 1.265 µM)?
Answer: 0.687

Question: And the relative viability ([19]; first compound 4 µM)?
Answer: 0.649

Question: And the relative viability ([20]; first compound 0.04 µM)?
Answer: 1.02

Question: What about the relative viability ([20]; first compound 0.1265 µM) of the same compound?
Answer: 0.973

Question: What about the relative viability ([20]; first compound 0.4 µM) of the same compound?
Answer: 1.04

Question: And the relative viability ([20]; first compound 1.265 µM)?
Answer: 0.981

Question: And the relative viability ([20]; first compound 4 µM)?
Answer: 0.974

Question: And the relative viability ([21]; first compound 0.04 µM)?
Answer: 0.375

Question: What about the relative viability ([21]; first compound 0.1265 µM) of the same compound?
Answer: 0.494

Question: And the relative viability ([21]; first compound 1.265 µM)?
Answer: 0.529

Question: And the relative viability ([21]; first compound 4 µM)?
Answer: 0.679

Question: What about the relative viability ([22]; first compound 0.04 µM) of the same compound?
Answer: 0.357

Question: What about the relative viability ([22]; first compound 0.1265 µM) of the same compound?
Answer: 0.328

Question: What about the relative viability ([22]; first compound 0.4 µM) of the same compound?
Answer: 0.435

Question: What about the relative viability ([22]; first compound 1.265 µM) of the same compound?
Answer: 0.366

Question: What about the relative viability ([22]; first compound 4 µM) of the same compound?
Answer: 0.306

Question: What about the relative viability ([23]; first compound 0.04 µM) of the same compound?
Answer: 0.913

Question: What about the relative viability ([23]; first compound 0.1265 µM) of the same compound?
Answer: 0.789

Question: What about the relative viability ([23]; first compound 0.4 µM) of the same compound?
Answer: 0.837

Question: And the relative viability ([23]; first compound 4 µM)?
Answer: 0.672

Question: What about the relative viability ([24]; first compound 0.04 µM) of the same compound?
Answer: 0.46

Question: And the relative viability ([24]; first compound 0.1265 µM)?
Answer: 0.467

Question: And the relative viability ([24]; first compound 0.4 µM)?
Answer: 0.491

Question: What about the relative viability ([24]; first compound 1.265 µM) of the same compound?
Answer: 0.407

Question: And the relative viability ([24]; first compound 4 µM)?
Answer: 0.341
